Measured values from patent US20260007681A1, “INDOLE DERIVATIVES AS ESTROGEN RECEPTOR DEGRADERS” (REGENTS OF THE UNIVERSITY OF MICHIGAN, priority 2022, published 2026).

These compounds were tested against ER (Homo sapiens (Human), UniProt P03372) (assay: Western blot analysis (Compounds B1-B278)). Details: ER degradation by traditional Western blot; DC50 classes.
Type: cell-based
Description: Western Blot Analysis. The cells that are treated with the compounds are lysed in Radioimmunoprecipitation Assay Protein Lysis and Extraction Buffer (e.g., 25 mmol/L Tris.HCl, pH 7.6, 150 mmol/L NaCl, 1% Nonidet P-40, 1% sodium deoxycholate, and 0.1% sodium dodecyl sulfate) containing proteinase inhibitor cocktail. Equal amounts of total protein are electrophoresed through 10% SDS-polyacrylamide gels after determination of protein concentration by BCA assay. The separated protein bands are transferred onto PVDF membranes and blotted against different antibodies. The blots are scanned, and the band intensities are quantified (e.g., by using GelQuant.NET software provided by biochemlabsolutions.com). The relative mean intensity of target proteins is expressed after normalization to the intensity of glyceraldehyde-3-phosphate dehydrogenase bands.
Western Blot Analysis. Western blot analysis was performed essentially as described previously. The cells treated with indicated compounds were lysed in Radioimmunoprecipitation Assay Protein Lysis and Extraction Buffer (25 mmol/L Tris.HCl, pH 7.6, 150 mmol/L NaCl, 1% Nonidet P-40, 1% sodium deoxycholate, and 0.1% sodium dodecyl sulfate) containing proteinase inhibitor cocktail (Roche Diagnostics, Mannheim, Germany). Equal amounts of total protein were electrophoresed through 10% SDS-polyacrylamide gels after determination of protein concentration by BCA assay (Fisher Scientific, Pittsburgh, PA). The separated protein bands were transferred onto PVDF membranes (GE Healthcare Life Sciences, Marlborough, MA) and blotted against different antibodies, as indicated. The blots were scanned, and the band intensities were quantified using GelQuant.NET software provided by biochemlabsolutions.com. The relative mean intensity of target proteins was expressed after normalization to the intensity of glyceraldehyde-3-phosphate dehydrogenase bands.

ER, sequence (P03372 whole entry): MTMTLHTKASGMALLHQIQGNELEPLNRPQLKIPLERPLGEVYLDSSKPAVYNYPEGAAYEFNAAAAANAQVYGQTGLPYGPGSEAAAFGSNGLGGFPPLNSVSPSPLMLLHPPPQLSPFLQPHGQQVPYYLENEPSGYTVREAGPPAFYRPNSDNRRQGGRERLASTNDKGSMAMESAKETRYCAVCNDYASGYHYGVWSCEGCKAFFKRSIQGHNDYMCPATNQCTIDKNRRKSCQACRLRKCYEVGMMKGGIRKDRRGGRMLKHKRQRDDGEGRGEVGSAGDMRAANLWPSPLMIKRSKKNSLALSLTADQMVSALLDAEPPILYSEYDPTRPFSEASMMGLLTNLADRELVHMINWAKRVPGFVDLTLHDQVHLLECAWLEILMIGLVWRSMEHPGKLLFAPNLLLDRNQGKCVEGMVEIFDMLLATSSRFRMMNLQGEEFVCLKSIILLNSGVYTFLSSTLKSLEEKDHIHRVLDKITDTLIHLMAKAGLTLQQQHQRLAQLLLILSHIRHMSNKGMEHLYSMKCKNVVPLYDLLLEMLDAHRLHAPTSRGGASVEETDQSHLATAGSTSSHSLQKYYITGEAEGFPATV

| Traditional Western Degradation Potency | Structure (SMILES) |
| --- | --- |
| A (“A”: <10 nM) | C[C@@H]1Cc2c([nH]c3ccccc23)[C@@H](c2c(F)cc(N3CCC4(CCN(CC(=O)N5Cc6cc7c(cc6C5)C(=O)N(C5CCC(=O)NC5=O)C7=O)C4)CC3)cc2F)N1CC(F)F (stereo partly drawn) [Compound B193, 6-(2-(8-(4-((1R,3R)-2-(2,2-difluoroethyl)-3-methyl-2,3,4,9-tetrahydro-1H-pyrido[3,4-b]indol-1-yl)-3,5-difluorophenyl)-2,8-diazaspiro[4.5]decan-2-yl)acetyl)-2-(2,6-dioxopiperidin-3-yl)-6,7-dihydropyrrolo[3,4-f]isoindole-1,3(2H,5H)-dione] |
| A (“A”: <10 nM) | C[C@@H]1Cc2c([nH]c3ccccc23)[C@@H](c2c(F)cc(N3CCC4(CCN(CC(=O)N5Cc6cc7c(cc6C5)C(=O)N(C5CCC(=O)NC5=O)C7)CC4)C3)cc2F)N1CC(F)F (stereo partly drawn) [Compound B48, 3-(6-(2-(2-(4-((1R,3R)-2-(2,2-difluoroethyl)-3-methyl-2,3,4,9-tetrahydro-1H-pyrido[3,4-b]indol-1-yl)-3,5-difluorophenyl)-2,8-diazaspiro[4.5]decan-8-yl)acetyl)-1-oxo-3,5,6,7-tetrahydropyrrolo[3,4-f]isoindol-2(1H)-yl)piperidine-2,6-dione] |
| A (“A”: <10 nM) | C[C@@H]1Cc2c([nH]c3ccccc23)[C@@H](c2c(F)cc(N3CCC4(CCN(C(=O)CN5Cc6cc7c(cc6C5)C(=O)N(C5CCC(=O)NC5=O)C7=O)CC4)C3)cc2F)N1CC(F)F (stereo partly drawn) [Compound B72, 6-(2-(2-(4-((1R,3R)-2-(2,2-difluoroethyl)-3-methyl-2,3,4,9-tetrahydro-1H-pyrido[3,4-b]indol-1-yl)-3,5-difluorophenyl)-2,8-diazaspiro[4.5]decan-8-yl)-2-oxoethyl)-2-(2,6-dioxopiperidin-3-yl)-6,7-dihydropyrrolo[3,4-f]isoindole-1,3(2H,5H)-dione] |
| A (“A”: <10 nM) | C[C@@H]1Cc2c([nH]c3ccccc23)[C@@H](c2c(F)cc(N3CCC4(CCN(CC(=O)N5Cc6cc7c(cc6C5)C(=O)N(C5CCC(=O)NC5=O)C7=O)CC4)C3)cc2F)N1CC(F)F (stereo partly drawn) [Compound B47, 6-(2-(2-(4-((1R,3R)-2-(2,2-difluoroethyl)-3-methyl-2,3,4,9-tetrahydro-1H-pyrido[3,4-b]indol-1-yl)-3,5-difluorophenyl)-2,8-diazaspiro[4.5]decan-8-yl)acetyl)-2-(2,6-dioxopiperidin-3-yl)-6,7-dihydropyrrolo[3,4-f]isoindole-1,3(2H,5H)-dione] |
| C (“C”: >100 nM) | C[C@@H]1Cc2c([nH]c3ccccc23)[C@@H](c2c(F)cc(N3CCC(N4CCC(C(=O)N5Cc6cc7c(cc6C5)C(=O)N(C5CCC(=O)NC5=O)C7=O)CC4)C3)cc2F)N1CC(F)F (stereo partly drawn) [Compound B50, 6-(1-(1-(4-((1R,3R)-2-(2,2-difluoroethyl)-3-methyl-2,3,4,9-tetrahydro-1H-pyrido[3,4-b]indol-1-yl)-3,5-difluorophenyl)pyrrolidin-3-yl)piperidine-4-carbonyl)-2-(2,6-dioxopiperidin-3-yl)-6,7-dihydropyrrolo[3,4-f]isoindole-1,3(2H,5H)-dione] |

More lines, now with the values behind:

| Structure (SMILES) | Traditional Western Degradation Potency |
| --- | --- |
| C[C@@H]1Cc2c([nH]c3ccccc23)[C@@H](c2c(F)cc(N3CCC(CN4CC5(CC(N6Cc7cc8c(cc7C6)C(=O)N(C6CCC(=O)NC6=O)C8=O)C5)C4)CC3)cc2F)N1CC(F)F (stereo partly drawn) [Compound B68, 6-(2-((1-(4-((1R,3R)-2-(2,2-difluoroethyl)-3-methyl-2,3,4,9-tetrahydro-1H-pyrido[3,4-b]indol-1-yl)-3,5-difluorophenyl)piperidin-4-yl)methyl)-2-azaspiro[3.3]heptan-6-yl)-2-(2,6-dioxopiperidin-3-yl)-6,7-dihydropyrrolo[3,4-f]isoindole-1,3(2H,5H)-dione] | A (“A”: <10 nM) |
| C[C@@H]1Cc2c([nH]c3ccccc23)[C@@H](c2c(F)cc(C3=CCC(C(=O)N4CCC(N5Cc6cc7c(cc6C5)C(=O)N(C5CCC(=O)NC5=O)C7=O)CC4)CC3)cc2F)N1CC1(F)CC1 (stereo partly drawn) [Compound B249, 6-(1-(3′,5′-difluoro-4′-((1R,3R)-2-((1-fluorocyclopropyl)methyl)-3-methyl-2,3,4,9-tetrahydro-1H-pyrido[3,4-b]indol-1-yl)-2,3,4,5-tetrahydro-[1,1′-biphenyl]-4-carbonyl)piperidin-4-yl)-2-(2,6-dioxopiperidin-3-yl)-6,7-dihydropyrrolo[3,4-f]isoindole-1,3(2H,5H)-dione] | C (“C”: >100 nM) |
| C[C@@H]1Cc2c([nH]c3ccccc23)[C@@H](c2c(F)cc(-c3ccc(C(=O)N4CCC(N5Cc6cc7c(cc6C5)C(=O)N(C5CCC(=O)NC5=O)C7=O)CC4)cn3)cc2F)N1CC(F)F (stereo partly drawn) [Compound B89, 6-(1-(6-(4-((1R,3R)-2-(2,2-difluoroethyl)-3-methyl-2,3,4,9-tetrahydro-1H-pyrido[3,4-b]indol-1-yl)-3,5-difluorophenyl)nicotinoyl)piperidin-4-yl)-2-(2,6-dioxopiperidin-3-yl)-6,7-dihydropyrrolo[3,4-f]isoindole-1,3(2H,5H)-dione] | A (“A”: <10 nM) |
| C[C@@H]1Cc2c([nH]c3ccccc23)[C@@H](c2c(F)cc(C3CCC(CN4CCC(N5Cc6cc7c(cc6C5)C(=O)N(C5CCC(=O)NC5=O)C7=O)CC4)CC3)cc2F)N1CC(F)F (stereo partly drawn) [Compound B82, 6-(1-((4-(4-((1R,3R)-2-(2,2-difluoroethyl)-3-methyl-2,3,4,9-tetrahydro-1H-pyrido[3,4-b]indol-1-yl)-3,5-difluorophenyl)cyclohexyl)methyl)piperidin-4-yl)-2-(2,6-dioxopiperidin-3-yl)-6,7-dihydropyrrolo[3,4-f]isoindole-1,3(2H,5H)-dione] | C (“C”: >100 nM) |
| C[C@@H]1Cc2c([nH]c3ccccc23)[C@@H](c2c(F)cc(N3CCC(C(=O)N4CC(CN5Cc6cc7c(cc6C5)C(=O)N(C5CCC(=O)NC5=O)C7=O)C4)CC3)cc2F)N1CC(F)F (stereo partly drawn) [Compound B207, 6-((1-(1-(4-((1R,3R)-2-(2,2-difluoroethyl)-3-methyl-2,3,4,9-tetrahydro-1H-pyrido[3,4-b]indol-1-yl)-3,5-difluorophenyl)piperidine-4-carbonyl)azetidin-3-yl)methyl)-2-(2,6-dioxopiperidin-3-yl)-6,7-dihydropyrrolo[3,4-f]isoindole-1,3(2H,5H)-dione] | B (“B”: 10-100 nM) |
| C[C@@H]1Cc2c([nH]c3ccccc23)[C@@H](c2cnc(N3CCC4(CC3)CC(CN3Cc5cc6c(cc5C3)C(=O)N(C3CCC(=O)NC3=O)C6=O)C4)nc2)N1CC(F)F (stereo partly drawn) [Compound B187, 6-((7-(5-((1R,3R)-2-(2,2-difluoroethyl)-3-methyl-2,3,4,9-tetrahydro-1H-pyrido[3,4-b]indol-1-yl)pyrimidin-2-yl)-7-azaspiro[3.5]nonan-2-yl)methyl)-2-(2,6-dioxopiperidin-3-yl)-6,7-dihydropyrrolo[3,4-f]isoindole-1,3(2H,5H)-dione] | B (“B”: 10-100 nM) |
| C[C@@H]1Cc2c([nH]c3ccccc23)[C@@H](c2cnc(N3CCC4(CCN(C(=O)CN5Cc6cc7c(cc6C5)C(=O)N(C5CCC(=O)NC5=O)C7=O)CC4)CC3)nc2)N1CC(F)F (stereo partly drawn) [Compound B220, 6-(2-(9-(5-((1R,3R)-2-(2,2-difluoroethyl)-3-methyl-2,3,4,9-tetrahydro-1H-pyrido[3,4-b]indol-1-yl)pyrimidin-2-yl)-3,9-diazaspiro[5.5]undecan-3-yl)-2-oxoethyl)-2-(2,6-dioxopiperidin-3-yl)-6,7-dihydropyrrolo[3,4-f]isoindole-1,3(2H,5H)-dione] | A (“A”: <10 nM) |
| C[C@@H]1Cc2c([nH]c3ccccc23)[C@@H](c2c(F)cc(C3CCN(C(=O)[C@H]4CC[C@@H](N5Cc6cc7c(cc6C5)C(=O)N(C5CCC(=O)NC5=O)C7=O)CC4)CC3)cc2F)N1CC(F)F (stereo partly drawn) [Compound B105, 6-((1S,4s)-4-(4-(4-((1R,3R)-2-(2,2-difluoroethyl)-3-methyl-2,3,4,9-tetrahydro-1H-pyrido[3,4-b]indol-1-yl)-3,5-difluorophenyl)piperidine-1-carbonyl)cyclohexyl)-2-(2,6-dioxopiperidin-3-yl)-6,7-dihydropyrrolo[3,4-f]isoindole-1,3(2H,5H)-dione] | B (“B”: 10-100 nM) |
| C[C@@H]1Cc2c([nH]c3ccccc23)[C@@H](c2c(F)cc(-c3ccc(C(=O)N4CCC(N5Cc6cc7c(cc6C5)C(=O)N(C5CCC(=O)NC5=O)C7=O)CC4)nc3)cc2F)N1CC(F)F (stereo partly drawn) [Compound B87, 6-(1-(5-(4-((1R,3R)-2-(2,2-difluoroethyl)-3-methyl-2,3,4,9-tetrahydro-1H-pyrido[3,4-b]indol-1-yl)-3,5-difluorophenyl)picolinoyl)piperidin-4-yl)-2-(2,6-dioxopiperidin-3-yl)-6,7-dihydropyrrolo[3,4-f]isoindole-1,3(2H,5H)-dione] | B (“B”: 10-100 nM) |
